Source: patent US20220177968A1, “METHODS FOR DETECTING OR REDUCING THE INCIDENCE OF ADVERSE DRUG REACTIONS” (CHANG GUNG MEMORIAL HOSPITAL, LINKOU, priority 2019, published 2022)
Several values for one entry are separate records, joined by “and”; a condition that tells them apart may be missing. Equal entries are not always repeated.

Assays:
[1] = system: European descent patients with CBZ-induced SJS/TEN; assay: HLA-A/B allele association with CBZ-induced SJS/TEN (case-control, sequence-based HLA typing); assay type: in vivo, human; conditions: for OR (95% CI) / Odds ratio (95% CI): CBZ-SJS/TEN cases vs European general population; for SJS/TEN N (%), allele carriers among cases / SCAR case N (%), allele carriers among cases: CBZ-SJS/TEN patients of European descent
Text: (§1) A total of 28 patients of European descent with CBZ-SJS/TEN were enrolled in this study. SJS/TEN is characterized by a rapidly developing exanthema of purpuric macules and target-like lesions with skin detachment accompanied by hemorrhagic-erosive mucosal involvement. Skin detachment in SJS patients affects less than 10% of body surface area (BSA), while TEN patients have skin detachment greater than 30% of BSA. Detachment of 10-30% is defined as SJS/TEN-overlap, reflecting a continuum of severity variants of one disease entity. Patients with CBZ-DRESS were also enrolled for comparison. HLA-A and HLA-B genotypes of patients with CBZ-SJS/TEN were determined by SeCore HLA sequence-based typing (Invitrogen, Life Technologies, USA). Furthermore, the HLA genotypes for patients with CBZ-DRESS and general population (the control group) were also determined. Statistical analyses were performed using SPSS 21.0 (IBM, Armonk, N.Y.). Comparisons of genotype frequencies between groups were performed using Fisher exact tests. Differences were considered statistically significant at p-values of less than 0.05.

[2] = system: patients with CBZ-DRESS, European descent; assay: HLA allele association with CBZ-induced DRESS (case-control, HLA typing); assay type: in vivo, human; conditions: for Odds ratio (95% CI): CBZ-DRESS cases vs European general population; for SCAR case N (%), allele carriers among cases: CBZ-DRESS patients
Text: as §1

In the case of `NC(=O)N1c2ccccc2C=Cc2ccccc21` [CBZ, Carbamazepine], the “OR (95% CI)” value ([1]; HLA-A*01:01) is reported as 2.2 (1.1-4.7), the “SJS/TEN N (%), allele carriers among cases” value (shortened to “SJS/TEN N (%)”) ([1]; HLA-A*01:01) is reported as 14/28 (50.0%) and the “OR (95% CI)” value ([1]; HLA-A*02:01) is reported as 0.5 (0.2-1.0). For the same compound, the “SJS/TEN N (%)” value ([1]; HLA-A*02:01) was 11/28 (39.29%), the “OR (95% CI)” value ([1]; HLA-A*24:02) was 0.6 (0.2-1.8) and the “SJS/TEN N (%)” value ([1]; HLA-A*24:02) was 3/28 (10.71%). The “OR (95% CI)” value ([1]; HLA-A*26:01) was 3.5 (1.3-9.0), the “SJS/TEN N (%)” value ([1]; HLA-A*26:01) was 5/28 (17.86%) and the “OR (95% CI)” value ([1]; HLA-A*31:01) was 3.5 (1.2-10.2) and 3.6 (1.2-10.3). For the same compound, the “Sensitivity (%)” value ([1]; HLA-A*31:01 as marker of CBZ-SJS/TEN) was 14.29%, the “OR (95% CI)” value ([1]; HLA-B*08:01) was 1.5 (0.7-3.5) and the “SJS/TEN N (%)” value ([1]; HLA-B*08:01) was 8/28 (28.57%). For the same compound, the “OR (95% CI)” value ([1]; HLA-B*13:02) was 1.8 (0.5-6.0), the “SJS/TEN N (%)” value ([1]; HLA-B*13:02) was 3/28 (10.71%) and the “OR (95% CI)” value ([1]; HLA-B*15:02) was 44.4 (2.2-879.5). For the same compound, the “SJS/TEN N (%)” value ([1]; HLA-B*15:02) was 0/28 (0%), the “OR (95% CI)” value ([1]; HLA-B*18:01) was 1.1 (0.3-3.8) and the “SJS/TEN N (%)” value ([1]; HLA-B*18:01) was 3/28 (10.71%). For the same compound, the “Sensitivity (%)” value ([1]; HLA-B*38:01 as marker of CBZ-SJS/TEN) was 14.29%, the “OR (95% CI)” value ([1]; HLA-B*44:02) was 0.2 (0.0-1.4) and the “SJS/TEN N (%)” value ([1]; HLA-B*44:02) was 1/28 (3.57%). For the same compound, the “OR (95% CI)” value ([1]; HLA-B*44:03) was 1.9 (0.6-5.4), the “SJS/TEN N (%)” value ([1]; HLA-B*44:03) was 4/28 (14.29%) and the “Odds ratio (95% CI)” value ([1]; HLA-B*57:01/A*31:01/B*38:01) was 9.3 (4.4-19.9). The “SCAR case N (%), allele carriers among cases” value (shortened to “SCAR case N (%)”) ([1]; HLA-B*57:01/A*31:01/B*38:01) was “(60.71%)”, the “Sensitivity (%)” value ([1]; HLA-B*57:01/A*31:01/B*38:01 as marker of CBZ-SJS/TEN) was 60.71% and the “Odds ratio (95% CI)” value ([1]; HLA-B*57:01/A*31:01) was 8.0 (3.8-16.7). The “SCAR case N (%)” value ([1]; HLA-B*57:01/A*31:01) was “(50.00%)”, the “Sensitivity (%)” value ([1]; HLA-B*57:01/A*31:01 as marker of CBZ-SJS/TEN) was 50.00% and the “Odds ratio (95% CI)” value ([1]; HLA-B*57:01/B*38:01) was 8.6 (4.1-18.1). For the same compound, the “SCAR case N (%)” value ([1]; HLA-B*57:01/B*38:01) was “(50.00%)”, the “Sensitivity (%)” value ([1]; HLA-B*57:01/B*38:01 as marker of CBZ-SJS/TEN) was 50.00% and the “Sensitivity (%)” value ([1]; HLA-B*57:01 as marker of CBZ-SJS/TEN) was 39.29%. For the same compound, the “Odds ratio (95% CI)” value ([2]; HLA-A*31:01) was 49.9 (12.9-193.6), the “Sensitivity (%)” value ([2]; HLA-A*31:01 as marker of CBZ-DRESS) was 70.00% and the “Odds ratio (95% CI)” value ([2]; HLA-B*38:01) was 1.2 (0.1-21.0). For the same compound, the “SCAR case N (%)” value ([2]; HLA-B*38:01) was “(0%)”, the “Sensitivity (%)” value ([2]; HLA-B*38:01 as marker of CBZ-DRESS) was 0% and the “Odds ratio (95% CI)” value ([2]; HLA-B*57:01/A*31:01/B*38:01) was 14.1 (3.6-54.5). The “SCAR case N (%)” value ([2]; HLA-B*57:01/A*31:01/B*38:01) was “(70.00%)”, the “Sensitivity (%)” value ([2]; HLA-B*57:01/A*31:01/B*38:01 as marker of CBZ-DRESS) was 70.00% and the “Odds ratio (95% CI)” value ([2]; HLA-B*57:01/A*31:01) was 18.6 (4.8-71.9). For the same compound, the “SCAR case N (%)” value ([2]; HLA-B*57:01/A*31:01) was “(70.00%)”, the “Sensitivity (%)” value ([2]; HLA-B*57:01/A*31:01 as marker of CBZ-DRESS) was 70.00% and the “Odds ratio (95% CI)” value ([2]; HLA-B*57:01/B*38:01) was 0.4 (0-7.0). The “SCAR case N (%)” value ([2]; HLA-B*57:01/B*38:01) was “(0%)”, the “Sensitivity (%)” value ([2]; HLA-B*57:01/B*38:01 as marker of CBZ-DRESS) was 0% and the “Odds ratio (95% CI)” value ([2]; HLA-B*57:01) was 0.7 (0.0-11.3). For the same compound, the “SCAR case N (%)” value ([2]; HLA-B*57:01) was “(0%)” and the “Sensitivity (%)” value ([2]; HLA-B*57:01 as marker of CBZ-DRESS) was 0%.
